Experimental data as given in ChEMBL document CHEMBL4311982, “Discovery of novel, potent, isosteviol-based antithrombotic agents” (Eur J Med Chem, 2019).

What was measured:
Coagulation factor X = Coagulation factor X (Homo sapiens, UniProt P00742); assay: Inhibition of human activated Factor X using S-2765 as substrate incubated for 15 mins followed by substrate addition and measured after 1 hr by chromogenic assay
Rattus norvegicus [1] = species: Rattus norvegicus; further: test concentration or dose not given here
[2] = Clearance in Wistar rat at 6.6 umol/kg, iv measured upto 24 hrs by LC-MS/MS analysis; type: ADME, organism-based; conditions: in vivo
[3] = Clearance in Wistar rat at 22 umol/kg, po measured upto 24 hrs by LC-MS/MS analysis; type: ADME, organism-based; conditions: in vivo
[4] = Cmax in Wistar rat at 22 umol/kg, po measured upto 24 hrs by LC-MS/MS analysis; type: ADME, organism-based; set-up: dose 22 umol/kg, route oral; conditions: in vivo
[5] = Oral bioavailability in Wistar rat at 22 umol/kg measured upto 24 hrs by LC-MS/MS analysis; type: ADME, organism-based; conditions: in vivo
[6] = AUC (0 to infinity) in Wistar rat at 6.6 umol/kg, iv measured upto 24 hrs by LC-MS/MS analysis; type: ADME, organism-based; set-up: dose 6.6 umol/kg, time infinity, route intravenous; conditions: in vivo
Rattus norvegicus [7] = species: Rattus norvegicus; remark: listed apart in the source; further: test concentration or dose not given here
[8] = Half life in Wistar rat at 6.6 umol/kg, iv measured upto 24 hrs by LC-MS/MS analysis; type: ADME, organism-based; conditions: in vivo
[9] = Volume of distribution in Wistar rat at 22 umol/kg, po measured upto 24 hrs by LC-MS/MS analysis; type: ADME, organism-based; conditions: in vivo
Rattus norvegicus [10] = species: Rattus norvegicus; remark: listed apart in the source; further: test concentration or dose not given here
[11] = Volume of distribution in Wistar rat at 6.6 umol/kg, iv measured upto 24 hrs by LC-MS/MS analysis; type: ADME, organism-based; conditions: in vivo
[12] = AUC (0 to infinity) in Wistar rat at 22 umol/kg, po measured upto 24 hrs by LC-MS/MS analysis; type: ADME, organism-based; set-up: dose 22 umol/kg, time infinity, route oral; conditions: in vivo
[13] = MRT in Wistar rat at 22 umol/kg, po measured upto 24 hrs by LC-MS/MS analysis; type: ADME, organism-based; conditions: in vivo
[14] = Half life in Wistar rat at 22 umol/kg, po measured upto 24 hrs by LC-MS/MS analysis; type: ADME, organism-based; conditions: in vivo
[15] = MRT in Wistar rat at 6.6 umol/kg, iv measured upto 24 hrs by LC-MS/MS analysis; type: ADME, organism-based; conditions: in vivo

Sequence of Coagulation factor X (P00742 41-179 limits assumed): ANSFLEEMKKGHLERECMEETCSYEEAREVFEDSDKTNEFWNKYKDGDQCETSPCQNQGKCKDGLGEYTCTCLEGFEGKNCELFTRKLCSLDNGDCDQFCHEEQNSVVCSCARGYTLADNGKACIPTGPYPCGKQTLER
Sequence of Coagulation factor X (P00742 235-488 limits assumed): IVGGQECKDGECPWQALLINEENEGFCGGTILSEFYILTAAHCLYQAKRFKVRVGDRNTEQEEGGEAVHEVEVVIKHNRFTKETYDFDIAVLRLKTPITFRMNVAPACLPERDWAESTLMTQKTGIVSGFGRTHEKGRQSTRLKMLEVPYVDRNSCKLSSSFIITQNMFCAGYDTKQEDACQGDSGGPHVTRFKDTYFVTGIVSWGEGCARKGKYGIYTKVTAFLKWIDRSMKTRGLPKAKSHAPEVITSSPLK

| Compound | Ki (Coagulation factor X) [µM] | other results |
| --- | --- | --- |
| CCOC(=O)c1ccc(CO/N=C2\C[C@]34CC[C@H]5[C@@](C)(CCC[C@@]5(C)C(=O)OCC)[C@@H]3CC[C@@]2(C)C4)o1 | 9.88 |  |
| CCOC(=O)[C@]1(C)CCC[C@@]2(C)[C@@H]3CC[C@@]4(C)C[C@]3(CC[C@@H]21)C/C4=N\OC/C=C/c1ccc2oc3ccccc3c2c1 | 21 |  |
| CCOC(=O)[C@]1(C)CCC[C@@]2(C)[C@@H]3CC[C@@]4(C)C[C@]3(CC[C@@H]21)C/C4=N\OC/C=C/c1ccc2c(c1)COC2=O | 20.7 |  |
| CCOC(=O)[C@]1(C)CCC[C@@]2(C)[C@@H]3CC[C@@]4(C)C[C@]3(CC[C@@H]21)C/C4=N/O | 2.65 | TT (Rattus norvegicus [1]): 18.9 min |
| CCOC(=O)[C@]1(C)CCC[C@@]2(C)[C@@H]3CC[C@@]4(C)C[C@]3(CC[C@@H]21)C/C4=N\OC/C=C/c1ccc(F)cc1 | 6.17 |  |
| CCOC(=O)[C@]1(C)CCC[C@@]2(C)[C@@H]3CC[C@@]4(C)C[C@]3(CC[C@@H]21)C/C4=N\OC/C=C/c1ccc(C#N)cc1 | 13.3 |  |
| CCOC(=O)[C@]1(C)CCC[C@@]2(C)[C@@H]3CC[C@@]4(C)C[C@]3(CC[C@@H]21)C/C4=N\OC/C=C/c1ccccc1 | 10.7 |  |
| C=CCO/N=C1\C[C@]23CC[C@H]4[C@@](C)(CCC[C@@]4(C)C(=O)OCC)[C@@H]2CC[C@@]1(C)C3 | 8.61 |  |
| CCOC(=O)[C@]1(C)CCC[C@@]2(C)[C@@H]3CC[C@@]4(C)C[C@]3(CC[C@@H]21)C/C4=N\OC/C=C/c1ccc2[nH]c3ccccc3c2c1 | 26.4 |  |
| CCOC(=O)[C@]1(C)CCC[C@@]2(C)[C@@H]3CC[C@@]4(C)C[C@]3(CC[C@@H]21)C/C4=N\OC/C=C/c1ccc2occc2c1 | 10.3 |  |
| CCOC(=O)[C@]1(C)CCC[C@@]2(C)[C@@H]3CC[C@@]4(C)C[C@]3(CC[C@@H]21)C/C4=N\OC/C=C/c1cccc2ccccc12 | 12.1 |  |
| CCOC(=O)[C@]1(C)CCC[C@@]2(C)[C@@H]3CC[C@@]4(C)C[C@]3(CC[C@@H]21)C/C4=N\OCc1cc(Cl)ccc1Cl | 9.25 |  |
| CCOC(=O)[C@]1(C)CCC[C@@]2(C)[C@@H]3CC[C@@]4(C)C[C@]3(CC[C@@H]21)CC4=O | 4.58 | TT (Rattus norvegicus [1]): 14.9 min |
| CCOC(=O)[C@]1(C)CCC[C@@]2(C)[C@@H]3CC[C@@]4(C)C[C@]3(CC[C@@H]21)C/C4=N\OCc1ccc(Cl)c(F)c1 | 9.79 |  |
| CCOC(=O)[C@]1(C)CCC[C@@]2(C)[C@@H]3CC[C@@]4(C)C[C@]3(CC[C@@H]21)C/C4=N\OCc1cccc(Cl)c1 | 18.1 |  |
| C[C@@]12CC[C@@H]3[C@@](CC[C@H]4[C@@]3(C)CCC[C@@]4(C)C(=O)O)(C/C1=N/O)C2 | 7.99 | TT (Rattus norvegicus [1]): 12.9 min |
| C[C@@]12CC[C@@H]3[C@@](CC[C@H]4[C@@]3(C)CCC[C@@]4(C)C(=O)O)(C[C@H]1O)C2 | 27.6 | TT (Rattus norvegicus [1]): 9.2 min |
| CCOC(=O)[C@]1(C)CCC[C@@]2(C)[C@@H]3CC[C@@]4(C)C[C@]3(CC[C@@H]21)C[C@H]4O | 25.1 | TT (Rattus norvegicus [1]): 9.4 min |
| COC(=O)[C@H](c1ccccc1Cl)N1CCc2sccc2C1 [CLOPIDOGREL] |  | TT (Rattus norvegicus [1]): 21 min |
| C[C@@]12CC[C@@H]3[C@@](CC[C@H]4[C@@]3(C)CCC[C@@]4(C)C(=O)O)(CC1=O)C2 [ISOSTEVIOL] | 13.4 | TT (Rattus norvegicus [1]): 17.2 min |
| O=C(NC[C@H]1CN(c2ccc(N3CCOCC3=O)cc2)C(=O)O1)c1ccc(Cl)s1 [RIVAROXABAN] |  | clearance [2]: 15 mL/min; CL/F [3]: 25 mL/min; Cmax [4]: 1580 ng/mL; bioavailability [5]: 59.7%; AUC(0-inf) [6]: 3510 ng·h/mL; PT (Rattus norvegicus [7]): 19.5 s; half-life [8]: 4.4 h; Vd [9]: 8.1 L; APTT (Rattus norvegicus [10]): 21.9 s; Vd [11]: 5.5 L; AUC(0-inf) [12]: 6980 ng·h/mL; MRT [13]: 5.4 h; half-life [14]: 3.7 h; TT (Rattus norvegicus [1]): 23.4 min; MRT [15]: 6.3 h |

Second part, led by results:

| Ki (Coagulation factor X) [µM] | Compound | other results |
| --- | --- | --- |
| 4.86 | CCOC(=O)[C@]1(C)CCC[C@@]2(C)[C@@H]3CC[C@@]4(C)C[C@]3(CC[C@@H]21)C/C4=N\OC/C=C/c1cccc(C(F)(F)F)c1 |  |
| 0.321 | CCOC(=O)[C@]1(C)CCC[C@@]2(C)[C@@H]3CC[C@@]4(C)C[C@]3(CC[C@@H]21)C/C4=N\OCc1c(F)c(F)c(F)c(F)c1F |  |
| 0.785 | CCOC(=O)[C@]1(C)CCC[C@@]2(C)[C@@H]3CC[C@@]4(C)C[C@]3(CC[C@@H]21)C/C4=N\OCCN1CCOCC1 |  |
| 4.67 | CCOC(=O)[C@]1(C)CCC[C@@]2(C)[C@@H]3CC[C@@]4(C)C[C@]3(CC[C@@H]21)C/C4=N\OC/C=C/c1ccc2[nH]ccc2c1 |  |
| 0.211 | CCOC(=O)[C@]1(C)CCC[C@@]2(C)[C@@H]3CC[C@@]4(C)C[C@]3(CC[C@@H]21)C/C4=N\OC/C=C/c1ccc2sccc2c1 |  |
| 0.515 | CCOC(=O)[C@]1(C)CCC[C@@]2(C)[C@@H]3CC[C@@]4(C)C[C@]3(CC[C@@H]21)C/C4=N\OCc1csc2ccc(Cl)cc12 |  |
| 4.33 | CCOC(=O)[C@]1(C)CCC[C@@]2(C)[C@@H]3CC[C@@]4(C)C[C@]3(CC[C@@H]21)C/C4=N\OCc1ccc(F)cc1 |  |
| 1.93 | CCOC(=O)[C@]1(C)CCC[C@@]2(C)[C@@H]3CC[C@@]4(C)C[C@]3(CC[C@@H]21)C/C4=N\OC/C=C/c1ccc(-c2cnco2)cc1 |  |
| 2.64 | CCOC(=O)[C@]1(C)CCC[C@@]2(C)[C@@H]3CC[C@@]4(C)C[C@]3(CC[C@@H]21)C/C4=N\OC/C=C/c1ccc([N+](=O)[O-])cc1 |  |
| 2.69 | CCOC(=O)[C@]1(C)CCC[C@@]2(C)[C@@H]3CC[C@@]4(C)C[C@]3(CC[C@@H]21)C/C4=N\OCc1ccc(C(F)(F)F)cc1 |  |
| 1.91 | CCOC(=O)[C@]1(C)CCC[C@@]2(C)[C@@H]3CC[C@@]4(C)C[C@]3(CC[C@@H]21)C/C4=N\OC/C=C/c1c[nH]c(C(=O)OC)c1 |  |
| 1.61 | CCOC(=O)[C@]1(C)CCC[C@@]2(C)[C@@H]3CC[C@@]4(C)C[C@]3(CC[C@@H]21)C/C4=N\OCC1OCCO1 |  |
| 2.88 | CCOC(=O)[C@]1(C)CCC[C@@]2(C)[C@@H]3CC[C@@]4(C)C[C@]3(CC[C@@H]21)C/C4=N\OCc1c(C)noc1C |  |
| 2.49 | CCOC(=O)[C@]1(C)CCC[C@@]2(C)[C@@H]3CC[C@@]4(C)C[C@]3(CC[C@@H]21)C/C4=N\OC/C=C/c1ccc(CN2CCOCC2)cc1 |  |
| 4.18 | CCOC(=O)[C@]1(C)CCC[C@@]2(C)[C@@H]3CC[C@@]4(C)C[C@]3(CC[C@@H]21)C/C4=N\OC/C=C/c1ccc2ncccc2c1 |  |
| 1.81 | CCOC(=O)[C@]1(C)CCC[C@@]2(C)[C@@H]3CC[C@@]4(C)C[C@]3(CC[C@@H]21)C/C4=N\OC1CCOCC1 |  |
| 1.94 | CCOC(=O)[C@]1(C)CCC[C@@]2(C)[C@@H]3CC[C@@]4(C)C[C@]3(CC[C@@H]21)C/C4=N\OCc1cnc(Cl)s1 |  |
| 4.03 | CCOC(=O)[C@]1(C)CCC[C@@]2(C)[C@@H]3CC[C@@]4(C)C[C@]3(CC[C@@H]21)C/C4=N\OCc1cc(C)nn1C |  |
| 1.64 | CCOC(=O)[C@]1(C)CCC[C@@]2(C)[C@@H]3CC[C@@]4(C)C[C@]3(CC[C@@H]21)C/C4=N\OC/C=C/c1ccc(C(C)=O)cc1 |  |
| 1.97 | CCOC(=O)[C@]1(C)CCC[C@@]2(C)[C@@H]3CC[C@@]4(C)C[C@]3(CC[C@@H]21)C/C4=N\OC/C=C/c1ccc(OC(F)(F)F)cc1 |  |
| 1.98 | CCOC(=O)[C@]1(C)CCC[C@@]2(C)[C@@H]3CC[C@@]4(C)C[C@]3(CC[C@@H]21)C/C4=N\OC/C=C/c1cc(F)c(F)c(F)c1 |  |
| 3.6 | CCOC(=O)[C@]1(C)CCC[C@@]2(C)[C@@H]3CC[C@@]4(C)C[C@]3(CC[C@@H]21)C/C4=N\OC/C=C/c1ccc2nccnc2c1 |  |
| 1.02 | CCOC(=O)[C@]1(C)CCC[C@@]2(C)[C@@H]3CC[C@@]4(C)C[C@]3(CC[C@@H]21)C/C4=N\OCc1ccc(OC(F)(F)F)cc1 |  |
